Experimental data reported in US8187508B2, “Base agent for electrical insulating oil” (Lion Corporation, priority 2005, dated 2012).

Key:
[1] = Dielectric breakdown voltage (JIS C2101); assay type: physicochemical
Source text: (§1) It will be noted that in the following Examples and Comparative Examples, an acid value, moisture content, kinetic viscosity, flash point, oxidation stability, dielectric breakdown voltage, specific permittivity, and a content of fatty acid triglyceride are, respectively, values measured according to the following methods. • (1) Acid value: determined by a method pursuant to a potentiometric method of JIS K1557. • (2) Moisture content: determined by a method pursuant to the Carl Fisher method of JIS K0068. • (3) Kinetic viscosity: determined by a method pursuant to the Canon Fenske viscometer of JIS K2283. • (4) Flash point: determined by a method pursuant to the Cleaveland open-cup method of JIS K2265. • (5) Oxidation stability: determined by a method pursuant to the electrical insulating oil testing method of JIS C2101. • (6) Dielectric breakdown voltage: determined by a method pursuant to the electric insulating oil testing method of JIS C2101. • (7) Specific permittivity: determined by a method pursuant to the electric insulating oil testing method of JIS C2101. • (8) Content of fatty acid triglyceride: about 40 mg of a sample was placed in a 3-ml vial container, to which 0.5 ml of pyridine, 0.4 ml of hexamethyldisilazane and 0.2 ml of trimethylchlorosilane were added, followed by trimethylsilylation at 80° C. for 30 minutes and subjecting the resulting supernatant liquid to gas chromatographic analysis.

[2] = Specific permittivity (JIS C2101); assay type: physicochemical
Source text: as §1

[3] = Oxidation stability test (JIS C2101); assay type: physicochemical; details: for Oxidation stability test, 120° C. after 75 hours: acid value after 120° C.; for Oxidation stability test, Initial value: acid value before the test
Experimental: In order to ensure good stability to oxygen and heat, the base agent for electrical insulating oils of the invention should preferably have a total acid value of not higher than 0.5 mg of KOH/g, more preferably not higher than 0.3 mg of KOH/g, after deterioration in an oxidation stability test (120° C., 75 hours) described in JIS C2101.
as §1

[4] = Kinetic viscosity (Canon Fenske viscometer, JIS K2283); assay type: physicochemical
Source text: as §1

[5] = Flash point (Cleaveland open-cup method, JIS K2265); assay type: physicochemical
Source text: as §1

human being = details: in vivo; cited from earlier work
rabbit = details: in vivo; cited from earlier work

| Di-electric breakdown voltage [1] | Specific permittivity (80° C.) [2] | Oxidation stability test, 120° C. after 75 hours [3] | Oxidation stability test, Initial value [3] | Kinetic viscosity (40° C.) [4] | Flash point [5] | SMILES | Dermal irritation average point (human being) | Eye irritation (rabbit) |
| --- | --- | --- | --- | --- | --- | --- | --- | --- |
| 73 KV/2.5 mm | 3.5 | 0.2 mgKOH/g | 0.008 mgKOH/g | 16 mm^2/s | 220 °C | CCCCC(CC)C(=O)OCC(COC(=O)C(CC)CCCC)OC(=O)C(CC)CCCC (centres unmarked) [base agent E, 2-ethylhexanoic acid triglyceride] | – | – |
| – | – | – | – | – | – | CCCCC(CC)C(=O)OCC(COC(=O)C(CC)CCCC)OC(=O)C(CC)CCCC (centres unmarked) [2-ethylhexanoic acid triglyceride] | test: average point = 0.05 | rabbit, 100%, OECD 405 method: no |
| 71 KV/2.5 mm | 3.8 | 0.4 mgKOH/g | 0.002 mgKOH/g | 12.5 mm^2/s | 235 °C | CCCCCCCC(=O)OCC(COC(=O)CCCCCCC)OC(=O)CCCCCCC [base agent B, caprylic acid triglyceride] | – | – |
| 78 KV/2.5 mm | 2.7 | 0.3 mgKOH/g | 0.002 mgKOH/g | 5 mm^2/s | 175 °C | CCCCCCCCCCCC(=O)OCC(CC)CCCC (centres unmarked) [2-ethyl hexyl laurate, 2-ethylhexyl laurate, reference compound] | – | – |

| SMILES | Di-electric breakdown voltage [1] | Specific permittivity (80° C.) [2] | Oxidation stability test, 120° C. after 75 hours [3] | Oxidation stability test, Initial value [3] | Kinetic viscosity (40° C.) [4] | Flash point [5] | Dermal irritation average point (human being) | Eye irritation (rabbit) |
| --- | --- | --- | --- | --- | --- | --- | --- | --- |
| CC(CC(=O)OCC(COC(=O)CC(C)CC(C)(C)C)(COC(=O)CC(C)CC(C)(C)C)COC(=O)CC(C)CC(C)(C)C)CC(C)(C)C (centres unmarked) [pentaerythritol ester of 3,5,5-trimethylhexanoic acid, reference compound] | 55 KV/2.5 mm | >3.0 | 0.8 mgKOH/g | 0.02 mgKOH/g | 110 mm^2/s | >250 °C | – | – |
